Test results reported in patent US10624897B2, “Chlorobenzene substituted azaaryl compounds” (TAIPEI MEDICAL UNIVERSITY, priority 2015, dated 2020).
Where two headings read alike, the source gives them in different places.

Experiments:
[1] = test system: RT-112, RT4 and T24 cells; assay: MTT assay, bladder cancer cells with different FGFR3 status; format: cell-based; conditions: 72 h, FIG. 1A
Protocol: (§1) Cell viability was assessed the MTT assay. […] Data are expressed as means±S.D. (***P<0.001 compares to control group).
BGJ-398, a known selective inhibitor of FGFR1 to FGFR3, was included as a reference compound. […] The major downstream pathways of FGFRs are MAPK, PI3K/AKT, and PLC-γ. RT-112 cells, which express FGFR3-TACC3, are reportedly unable to activate PLCγ due to a deletion of the last exon of FGFR3.

RT-112 cells [2] = assay: Western blot of G0/G1 regulatory proteins; format: cell-based; conditions: 24 h, FIG. 3C
Protocol: C. […] Apoptosis was assessed via detection of cleaved caspase-3 and PARP.
We observed that genes associated with cell cycle progression were decreased in MPT0L145-treated cells. […] This phenomenon was also observed in the cells treated with BGJ-398 (FIG. 3A). […] Next, we examined expression of G0/G1 regulatory proteins via western blot. […] The possibility of MPT0L145-induced apoptosis was further eliminated by examining cleavage of caspase-3 and its substrate, PARP, in 72 h, compared with paclitaxel (FIG. 3D).

RT-112 = assay: MTT assay, cell viability; format: cell-based; conditions: 72 hours
Protocol: (§2) Cells were cultured in RPMI-1640 (RT-112, KMS-11, SNU-16, HT-29, HCT-116, NCI—H520, Hep3B, PLC/PRF/5, HL-60, MOLT-4) and DMEM (HepG2, MCF-7, MDA-MB-231) with 10% FBS (v/v) and Penicillin/Streptomycin (100 U/ml). FU-DDLS-1 cell line was maintained in DMEM:F12 medium with 10% FBS. LiSa-2 cell line was maintained in IMDM/RPMI-1640 in a 4:1 ratio supplemented with 10% FBS, 2 mmol/L L-glutamine, and 0.1 mg/mL gentamicin. Human umbilical vein endothelial cells (HUVECs) were grown to confluence on 1% collagen, and maintained in 90% Medium 199 with 25 U/ml heparin, 30 μg/ml endothelial cell growth supplement (ECGS) adjusted to contain 1.5 g/L sodium bicarbonate, 10% FBS and Penicillin/Streptomycin (100 U/ml) Cultures were maintained at 37° C. in a humidified atmosphere of 5% CO2/95% air.
(§3) Cells were seeded in 96-well plates (5,000 cells/well) and incubated overnight for attachment, and were then treated with indicated agents in 10% FBS-supplemented medium for 72 hours. The medium was replaced with MTT (0.5 mg/mL) at 37° C. for 1 hours. After removal of medium, the cells were lysed with 100 μL per well dimethyl sulfoxide (DMSO), and absorbance at 550 nm was measured with microplate reader. The relative cell viability (%) was expressed as a percentage relative to a DMSO control cells.

Hep3B = assay: MTT assay, cell viability; format: cell-based; conditions: 5 uM, 72 hours
Protocol: as §2, §3

HL-60 = assay: MTT assay, cell viability; format: cell-based; conditions: Homo sapiens; HL-60, AML, 72 hours; read-out: IC50 (μM, Mean ± SD)
Protocol: as §2, §3

SNU-16 = assay: MTT assay, cell viability; format: cell-based; conditions: 72 hours
Protocol: as §2, §3

MOLT-4 = assay: MTT assay, cell viability; format: cell-based; conditions: Homo sapiens; MOLT-4, ALL, 72 hours; read-out: IC50 (μM, Mean ± SD)
Protocol: as §2, §3

HT-29 = assay: MTT assay, cell viability; format: cell-based; conditions: Homo sapiens; HT-29, Colorectal, 72 hours; read-out: IC50 (μM, Mean ± SD)
Protocol: as §2, §3

PLC/PRF/5 = assay: MTT assay, cell viability; format: cell-based; conditions: PLC5, 5 uM, 72 hours
Protocol: as §2, §3

RT-112 cells [3] = assay: Cell cycle distribution by flow cytometry; format: cell-based; conditions: 48 h to 72 h, FIG. 3A
FGFR3(K650E) = target: T1, FGFR3(K650E) (Homo sapiens, UniProt P22607, K650E); assay: Kinase binding assay (Kd), mutant FGFR3
T1 construct: made in house; host or cells: E. coli BL21-derived host (T7 phage) or HEK-293
Protocol: (§4) Kinase assays. For most assays, kinase-tagged T7 phage strains were prepared in an E. coli host derived from the BL21 strain. E. coli were grown to log-phase and infected with T7 phage and incubated with shaking at 32° C. until lysis. The lysates were centrifuged and filtered to remove cell debris. The remaining kinases were produced in HEK-293 cells and subsequently tagged with DNA for qPCR detection. […] The liganded beads were blocked with excess biotin and washed with blocking buffer (SeaBlock (Pierce), 1% BSA, 0.05% Tween 20, 1 mM DTT) to remove unbound ligand and to reduce non-specific binding. […] All reactions were performed in polystyrene 96-well plates in a final volume of 0.135 ml. […] The kinase concentration in the eluates was measured by qPCR.
(§5) An 11-point 3-fold serial dilution of each test compound was prepared in 100% DMSO at 100× final test concentration and subsequently diluted to 1× in the assay (final DMSO concentration=1%). Most Kds were determined using a compound top concentration=30,000 nM.
(§6) Binding constants (Kds) were calculated with a standard dose-response curve using the Hill equation: […]
(§7) The Hill Slope was set to −1. Curves were fitted using a non-linear least square fit with the Levenberg-Marquardt algorithm.
(§8) The compound and assay method are similar to those mentioned in Example 45.

FGFR3(G697C) = target: T2, FGFR3(G697C) (Homo sapiens, UniProt P22607, G697C); assay: Kinase binding assay (Kd), mutant FGFR3
T2 construct: made in house; host or cells: E. coli BL21-derived host (T7 phage) or HEK-293
Protocol: as §4, §5, §6, §7, §8

FGFR3(V555M) = target: T3, FGFR3(V555M) (Homo sapiens, UniProt P22607, V555M); assay: Kinase binding assay (Kd), mutant FGFR3
T3 construct: made in house; host or cells: E. coli BL21-derived host (T7 phage) or HEK-293
Protocol: as §4, §5, §6, §7, §8

RT-112 tumor xenografts = conditions: for Tumor growth inhibition (%): i.p., nude mice
Protocol: Eight-week-old female athymic nude mice were group-housed in the TMU Laboratory Animal Center (Taipei, Taiwan) under conditions of constant photoperiod (12 h light/12 h dark at 21-0023° C. and 60-85% humidity) with ad libitum access to sterilized food and water. […] Tumors were measured weekly using calipers. Tumor volume (mm3) was calculated from w2×½ (w=width, 1=length in mm of the tumor).

HUVEC = assay: MTT assay, viability of normal cells; format: cell-based, Human; conditions: 72 hours, FIG. 1B
Protocol: as §1, §2
as §3, with “The medium was replaced with MTT (0.5 mg/mL) at 37° C. for 1 hours.” left out

T1 sequence (P22607 23-806 K650E): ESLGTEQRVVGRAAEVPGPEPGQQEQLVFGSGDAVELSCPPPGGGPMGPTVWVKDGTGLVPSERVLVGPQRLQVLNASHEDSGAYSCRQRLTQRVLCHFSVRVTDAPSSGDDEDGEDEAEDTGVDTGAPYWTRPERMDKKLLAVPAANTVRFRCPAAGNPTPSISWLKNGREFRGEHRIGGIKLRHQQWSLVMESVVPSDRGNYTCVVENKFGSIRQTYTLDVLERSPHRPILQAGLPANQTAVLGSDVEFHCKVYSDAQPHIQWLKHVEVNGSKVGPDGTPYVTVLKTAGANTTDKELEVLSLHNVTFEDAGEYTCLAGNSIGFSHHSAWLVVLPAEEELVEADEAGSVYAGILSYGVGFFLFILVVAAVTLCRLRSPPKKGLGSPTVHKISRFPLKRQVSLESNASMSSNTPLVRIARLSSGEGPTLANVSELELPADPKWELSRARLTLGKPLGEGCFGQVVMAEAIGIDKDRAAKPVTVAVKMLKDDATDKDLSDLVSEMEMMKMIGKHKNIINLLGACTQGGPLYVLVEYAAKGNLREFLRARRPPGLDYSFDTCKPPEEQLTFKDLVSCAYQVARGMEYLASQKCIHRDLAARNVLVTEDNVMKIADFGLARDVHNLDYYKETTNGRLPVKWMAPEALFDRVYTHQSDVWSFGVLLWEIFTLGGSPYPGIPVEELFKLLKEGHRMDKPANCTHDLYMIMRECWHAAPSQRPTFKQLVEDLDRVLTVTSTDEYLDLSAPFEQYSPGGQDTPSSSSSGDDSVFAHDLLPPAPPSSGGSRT
T3 sequence (P22607 23-806 V555M): as the sequence (P22607 23-806 K650E) above, with V533M, E628K counted along it
T2 sequence (P22607 23-806 G697C): as the sequence (P22607 23-806 K650E) above, with E628K, G675C counted along it

CCN1CCN(c2ccc(Nc3ncnc(N(C)C(=O)Nc4c(Cl)c(OC)c(Cl)c(OC)c4Cl)n3)cc2)CC1 [MPT0L145, 1-(4-((4-(4-ethylpiperazin-1-yl)phenyl)amino)-1,3,5-triazin-2-yl)-1-methyl-3-(2,4,6-trichloro-3,5-dimethoxyphenyl)urea]
sensitivity of FGFR3-TACC3 fusion cells (RT-112, RT4) versus normal FGFR3 status (T24) [1]: more sensitive | cyclin E levels (RT-112 cells [2]): marked decrease | p16 level (RT-112 cells [2]): slight increase | Viability (% of control cells) RT-112 (5 uM) Mean (RT-112; RT-112, 5 uM): 33.4 % of control cells | Viability (% of control cells) RT-112 (10 uM) Mean (RT-112; RT-112, 10 uM): 8.5 % of control cells | Viability (% of control cells) Hep3B (5 uM) Mean (Hep3B): 66.2 % of control cells | IC50 (HL-60): 4.72 ± 1.46 µM | Viability (% of control cells) SNU-16 (5 uM) Mean (SNU-16): 36.9 % of control cells | IC50 (MOLT-4): 3.7 ± 0.2 µM | IC50 (HT-29): 2.49 ± 0.29 µM | Viability (% of control cells) PLC5 (5 uM) Mean (PLC/PRF/5): 20.6 % of control cells | accumulation of the sub-G1 phase (apoptotic cell death) (RT-112 cells [3]): did not promote accumulation of the sub-G1 phase | Kd (FGFR3(K650E)): 0.24 µM | Kd (FGFR3(G697C)): 0.39 µM | Kd (FGFR3(V555M)): > 10 µM | Tumor growth inhibition (%) (RT-112 tumor xenografts; 5 mg/kg/d): 61.4% | Tumor growth inhibition (%) (RT-112 tumor xenografts; 10 mg/kg/d): 74.6% | tumor growth (RT-112 tumor xenografts; 5 and 10 mg/kg/d i.p., dose-dependent): significantly suppressed tumor growth | toxicity in normal cells (HUVEC) compared with BGJ-398 (HUVEC): significantly lower toxicity
